Test results published in patent US5807535A, “Metal complexes of hydroxyaryl containing aminocarboxylic acid chelating agents” (Australian Nuclear Science & Technology Organisation, priority 1992, dated 1998).
Where two headings read alike, the source gives them in different places.

Assays:
[1] = Biodistribution of 99mTc complexes in rats; type: in vivo, Australian Albino Wistar Rats; conditions: for tissue uptake at 0.5 min / tissue uptake at 1 min / tissue uptake at 0.05 h / tissue uptake at 5 min / tissue uptake at 10 min: rat; for tissue uptake at 0.5 min: 30 sec
Description: A typical method of radiolabelling of the chelator was achieved by dissolving the chelator in a basic solution of saline. The pH was then adjusted to approx. 6 with HCl. Excess stannous chloride was added to the resultant solution followed by one equivalent volume of sodium ^99m TcO4 (10-50 mCi/ml). Final concentration of the chelator was approx. 1 mg/ml. The efficacy of labelling was determined by ITLC-SG. For each product only one main radiochemical species was observed. Each complex was diluted to 15 μCi/100 μl with saline. […] (See FIGS. 1A and 1B).
Selected data from biodistribution results of technetium-99m complexes of No. 1, No. 2 and No 4 in the liver, kidney and blood at 3 minutes is tabulated below.

[2] = Biodistribution of 67Ga complexes in mice; type: in vivo, balb/c mice
Description: To ligand (50 μL, 10 mg/mL, 0.2 M NaOAc, […]) was added ^67 Ga citrate (18.5 MBq) and the resultant mixture diluted to 1 mL (0.2 M NaOAc, pH 7). The pH was adjusted to 12 with 1 M NaOH (20 μL) and heated at 40° C. for 40 min. The final volume was adjusted (to 5 mL) with saline and sterilised by filtering through a 0.22 μm filter.
Each animal was injected via tail vein with ^67 Ga complex (100 μL, ~3.7×10^5 Bq). Animals were sacrificed at various time intervals (5 animals per time point/6 time points). Data are illustrated in FIG. 26-30 and in Tables 13-17.
Each ^67 Ga-ligand complex has been evaluated in balb/c mice. […] (see FIG. 26-30).

[3] = blood, rats, read-out: biodistribution blood
[4] = bone, rats, read-out: biodistribution bone
[5] = brain, rats, read-out: biodistribution brain
[6] = eyes, rats, read-out: biodistribution eyes
[7] = heart, rats, read-out: biodistribution heart
[8] = kidneys, rats, read-out: biodistribution kidneys
[9] = liver, rats, read-out: biodistribution liver
[10] = lungs, rats, read-out: biodistribution lungs
[11] = muscle, rats, read-out: biodistribution muscle
[12] = pancreas, rats, read-out: biodistribution pancreas
[13] = skin, rats, read-out: biodistribution skin
[14] = spleen, rats, read-out: biodistribution spleen
[15] = stomach, rats, read-out: biodistribution stomach
[16] = tail, rats, read-out: biodistribution tail
[17] = thymus, rats, read-out: biodistribution thymus
[18] = thyroid, rats, read-out: biodistribution thyroid
[19] = total git, rats, read-out: biodistribution tot GIT

- tissue uptake at 0.5 min [1, 3]: 2.79 %ID/g
- tissue uptake at 1 min [1, 3]: 2.77 %ID/g
- tissue uptake at 0.05 h ([1]; blood, rats, 3 minutes, selected data, read-out: Blood): 1.32 %ID/g
- tissue uptake at 5 min [1, 3]: 0.94 %ID/g
- tissue uptake at 10 min [1, 3]: 0.77 %ID/g
- tissue uptake at 0.5 min [1, 4]: 0.34 %ID/g
- tissue uptake at 1 min [1, 4]: 0.37 %ID/g
- tissue uptake at 0.05 h ([1]; bone, rats, 3 min, read-out: biodistribution bone): 0.25 %ID/g
- tissue uptake at 5 min [1, 4]: 0.19 %ID/g
- tissue uptake at 10 min [1, 4]: 0.15 %ID/g
- tissue uptake at 0.5 min [1, 5]: 0.14 %ID/g
- tissue uptake at 1 min [1, 5]: 0.09 %ID/g
- tissue uptake at 0.05 h ([1]; brain, rats, 3 min, read-out: biodistribution brain): 0.06 %ID/g
- tissue uptake at 5 min [1, 5]: 0.04 %ID/g
- tissue uptake at 10 min [1, 5]: 0.03 %ID/g
- tissue uptake at 0.5 min [1, 6]: 0.11 %ID/g
- tissue uptake at 1 min [1, 6]: 0.15 %ID/g
- tissue uptake at 0.05 h ([1]; eyes, rats, 3 min, read-out: biodistribution eyes): 0.12 %ID/g
- tissue uptake at 5 min [1, 6]: 0.1 %ID/g
- tissue uptake at 10 min [1, 6]: 0.1 %ID/g
- tissue uptake at 0.5 min [1, 7]: 0.87 %ID/g
- tissue uptake at 1 min [1, 7]: 0.93 %ID/g
- tissue uptake at 0.05 h ([1]; heart, rats, 3 min, read-out: biodistribution heart): 0.46 %ID/g
- tissue uptake at 5 min [1, 7]: 0.36 %ID/g
- tissue uptake at 10 min [1, 7]: 0.28 %ID/g
- tissue uptake at 0.05 h ([1]; kidney, rats, 3 minutes, selected data, read-out: Kidney): 8.9 %ID/g
- tissue uptake at 0.5 min [1, 8]: 6.42 %ID/g
- tissue uptake at 1 min [1, 8]: 8.37 %ID/g
- tissue uptake at 0.05 h ([1]; kidneys, rats, 3 min, read-out: biodistribution kidneys): 8.9 %ID/g
- tissue uptake at 5 min [1, 8]: 7.26 %ID/g
- tissue uptake at 10 min [1, 8]: 3.35 %ID/g
- tissue uptake at 0.5 min [1, 9]: 4.61 %ID/g
- tissue uptake at 1 min [1, 9]: 6.28 %ID/g
- tissue uptake at 0.05 h ([1]; liver, rats, 3 minutes, selected data, read-out: Liver): 5.93 %ID/g
- tissue uptake at 5 min [1, 9]: 3.93 %ID/g
- tissue uptake at 10 min [1, 9]: 1.89 %ID/g
- tissue uptake at 0.5 min [1, 10]: 1.2 %ID/g
- tissue uptake at 1 min [1, 10]: 1.17 %ID/g
- tissue uptake at 0.05 h ([1]; lungs, rats, 3 min, read-out: biodistribution lungs): 0.79 %ID/g
- tissue uptake at 5 min [1, 10]: 0.59 %ID/g
- tissue uptake at 10 min [1, 10]: 0.48 %ID/g
- tissue uptake at 0.5 min [1, 11]: 0.22 %ID/g
- tissue uptake at 1 min [1, 11]: 0.24 %ID/g
- tissue uptake at 0.05 h ([1]; muscle, rats, 3 min, read-out: biodistribution muscle): 0.2 %ID/g
- tissue uptake at 5 min [1, 11]: 0.16 %ID/g
- tissue uptake at 10 min [1, 11]: 0.11 %ID/g
- tissue uptake at 0.5 min [1, 12]: 0.49 %ID/g
- tissue uptake at 1 min [1, 12]: 0.66 %ID/g
- tissue uptake at 0.05 h ([1]; pancreas, rats, 3 min, read-out: biodistribution pancreas): 0.44 %ID/g
- tissue uptake at 5 min [1, 12]: 0.52 %ID/g
- tissue uptake at 10 min [1, 12]: 0.27 %ID/g
- tissue uptake at 0.5 min [1, 13]: 0.29 %ID/g
- tissue uptake at 1 min [1, 13]: 0.45 %ID/g
- tissue uptake at 0.05 h ([1]; skin, rats, 3 min, read-out: biodistribution skin): 0.42 %ID/g
- tissue uptake at 5 min [1, 13]: 0.35 %ID/g
- tissue uptake at 10 min [1, 13]: 0.33 %ID/g
- tissue uptake at 0.5 min [1, 14]: 0.62 %ID/g
- tissue uptake at 1 min [1, 14]: 0.58 %ID/g
- tissue uptake at 0.05 h ([1]; spleen, rats, 3 min, read-out: biodistribution spleen): 0.33 %ID/g
- tissue uptake at 5 min [1, 14]: 0.25 %ID/g
- tissue uptake at 10 min [1, 14]: 0.16 %ID/g
- tissue uptake at 0.5 min [1, 15]: 0.41 %ID/g
- tissue uptake at 1 min [1, 15]: 0.68 %ID/g
- tissue uptake at 0.05 h ([1]; stomach, rats, 3 min, read-out: biodistribution stomach): 2.08 %ID/g
- tissue uptake at 5 min [1, 15]: 0.98 %ID/g
- tissue uptake at 10 min [1, 15]: 0.9 %ID/g
- tissue uptake at 0.5 min [1, 16]: 0.81 %ID/g
- tissue uptake at 1 min [1, 16]: 0.66 %ID/g
- tissue uptake at 0.05 h ([1]; tail, rats, 3 min, read-out: biodistribution tail): 0.64 %ID/g
- tissue uptake at 5 min [1, 16]: 1.16 %ID/g
- tissue uptake at 10 min [1, 16]: 0.55 %ID/g
- tissue uptake at 0.5 min [1, 17]: 0.39 %ID/g
- tissue uptake at 1 min [1, 17]: 0.37 %ID/g
- tissue uptake at 0.05 h ([1]; thymus, rats, 3 min, read-out: biodistribution thymus): 0.27 %ID/g
- tissue uptake at 5 min [1, 17]: 0.17 %ID/g
- tissue uptake at 10 min [1, 17]: 0.15 %ID/g
- tissue uptake at 0.5 min [1, 18]: 1.41 %ID/g
- tissue uptake at 1 min [1, 18]: 1.71 %ID/g
- tissue uptake at 0.05 h ([1]; thyroid, rats, 3 min, read-out: biodistribution thyroid): 0.81 %ID/g
- tissue uptake at 5 min [1, 18]: 0.58 %ID/g
- tissue uptake at 10 min [1, 18]: 0.44 %ID/g
- tissue uptake at 0.5 min [1, 19]: 0.48 %ID/g
- tissue uptake at 1 min [1, 19]: 0.58 %ID/g
- tissue uptake at 0.05 h ([1]; total git, rats, 3 min, read-out: biodistribution tot GIT): 1.56 %ID/g
- tissue uptake at 5 min [1, 19]: 2.27 %ID/g
- tissue uptake at 10 min [1, 19]: 3.18 %ID/g
- biodistribution blood ([1]; rats, 3 min): 1.32 % Injected dose per gram
- biodistribution liver ([1]; rats, 3 min): 5.93 % Injected dose per gram
- biodistribution bone ([2]; 1 min): 6.16 % ID
- biodistribution kidney ([2]; 1 min): 9.54 % ID
- biodistribution liver ([2]; 1 min): 24.9 % ID
- biodistribution lungs ([2]; 1 min): 1.79 % ID
- biodistribution muscle ([2]; 1 min): 20.55 % ID
- biodistribution skin ([2]; 1 min): 11.55 % ID
- biodistribution spleen ([2]; 1 min): 0.29 % ID
- biodistribution bone ([2]; 3 min): 2.82 % ID
- biodistribution kidney ([2]; 3 min): 4.62 % ID
- biodistribution liver ([2]; 3 min): 35.52 % ID
- biodistribution lungs ([2]; 3 min): 0.56 % ID
- biodistribution muscle ([2]; 3 min): 8.63 % ID
- biodistribution skin ([2]; 3 min): 9.27 % ID
- biodistribution spleen ([2]; 3 min): 0.1 % ID
- biodistribution bone ([2]; 5 min): 2.13 % ID
- biodistribution kidney ([2]; 5 min): 3.52 % ID
- biodistribution liver ([2]; 5 min): 33.09 % ID
- biodistribution lungs ([2]; 5 min): 0.41 % ID
- biodistribution muscle ([2]; 5 min): 5.50 % ID
- biodistribution skin ([2]; 5 min): 8.04 % ID
- biodistribution spleen ([2]; 5 min): 0.07 % ID
- biodistribution bone ([2]; 10 min): 0.74 % ID
- biodistribution kidney ([2]; 10 min): 1.00 % ID
- biodistribution liver ([2]; 10 min): 23.34 % ID
- biodistribution lungs ([2]; 10 min): 0.12 % ID
- biodistribution muscle ([2]; 10 min): 2.00 % ID
- biodistribution skin ([2]; 10 min): 3.80 % ID
- biodistribution spleen ([2]; 10 min): 0.02 % ID
- biodistribution bone ([2]; 30 min): 0.50 % ID
- biodistribution kidney ([2]; 30 min): 0.21 % ID
- biodistribution liver ([2]; 30 min): 3.7 % ID
- biodistribution muscle ([2]; 30 min): 2.00 % ID
- biodistribution skin ([2]; 30 min): 0.88 % ID
- biodistribution spleen ([2]; 30 min): 0.02 % ID
- biodistribution bone ([2]; 120 min): 0.38 % ID
- biodistribution kidney ([2]; 120 min): 0.01 % ID
- biodistribution liver ([2]; 120 min): 0.92 % ID
- biodistribution muscle ([2]; 120 min): 0.31 % ID
- biodistribution skin ([2]; 120 min): 0.17 % ID
- biodistribution spleen ([2]; 120 min): 0 % ID
Structure (SMILES): O=C(O)CN(CCN(CC(=O)O)CC(=O)Nc1ccc(Cl)cc1O)CC(=O)Nc1ccc(Cl)cc1O [Compound 2]
- hepatobiliary passage ([1]; Tables 2 and 4): specifically traverse the hepatobiliary system
- liver versus kidney uptake ([1]; rats): preference for the liver uptake as opposed to the kidney
